Earlier results as cited in US20250177316A1, “Delayed-Release Granulates of Melatonin, Combinations Comprising Melatonin, Pharmaceutical Compositions and Dietary Supplements Containing Them, and Their Use in the Treatment of Insomnia and for the Reduction of the Time Required to Fall Asleep” (S.I.I.T. S.R.L. - SERVIZIO INTERNAZIONALE IMBALLAGGI …, priority 2022, published 2025).

Row | Structure (SMILES) | pH of 5% solution in water
1 | CC(O)C(=O)[O-].CC(O)C(=O)[O-].[Ca+2] (centres unmarked) [calcium lactate] | 6-8
2 | CC(O)C(=O)[O-].CC(O)C(=O)[O-].[Mg+2] (centres unmarked) [magnesium lactate] | 6.5-8.5
